Results as given in patent US20100035796A1 (priority 2005, published 2010).

Tests used:
IL-6 = assay: Expression of inflammation markers in the wound model (second study): IL-6; assay type: in vivo, mice
CD74 = assay: Expression of inflammation markers in the wound model (second study): CD74; assay type: in vivo, mice
MIF = assay: Expression of inflammation markers in the wound model (second study): MIF; assay type: in vivo, mice
sun-damaged skin = conditions: hairless mice; Gendimenico et al. 2002; cited from earlier work
wound = conditions: cited from earlier work; for wound-healing on topical use: used topically, Ashcroft et al. 2003b
ERβ = assay: Expression of estrogen receptors in ovariectomised animals: ERβ-positive cells; assay type: in vivo, mice
TGF-β = assay: Expression of inflammation markers in the wound model (second study): TGF-β; assay type: in vivo, mice
steroid sulphatase = biological target: T1, steroid sulphatase (Homo sapiens, UniProt P08842); conditions: R. P. Boivin et al., J. Med. Chem. 2000; cited from earlier work
T1 sequence (P08842 22-583): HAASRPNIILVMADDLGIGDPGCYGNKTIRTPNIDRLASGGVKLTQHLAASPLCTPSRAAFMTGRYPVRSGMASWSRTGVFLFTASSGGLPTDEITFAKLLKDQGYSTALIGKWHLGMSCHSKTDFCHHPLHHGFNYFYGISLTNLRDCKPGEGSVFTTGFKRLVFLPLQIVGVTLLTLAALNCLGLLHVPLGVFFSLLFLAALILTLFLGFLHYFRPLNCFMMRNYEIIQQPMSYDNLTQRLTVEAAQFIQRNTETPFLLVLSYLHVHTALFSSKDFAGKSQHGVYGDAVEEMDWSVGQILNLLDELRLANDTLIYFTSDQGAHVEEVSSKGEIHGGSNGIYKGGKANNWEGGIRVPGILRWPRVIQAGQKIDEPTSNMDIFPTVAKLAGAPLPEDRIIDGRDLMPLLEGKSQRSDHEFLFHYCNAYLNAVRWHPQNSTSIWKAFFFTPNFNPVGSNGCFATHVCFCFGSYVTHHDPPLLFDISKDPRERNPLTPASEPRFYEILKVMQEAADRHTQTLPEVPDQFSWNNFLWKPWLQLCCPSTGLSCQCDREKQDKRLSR

estrogen receptor = assay: Activity on the estrogen receptor in ERE-luc mice, photometric analysis with CCD camera; assay type: in vivo
Description: (§1) The activity of two compounds of the invention, 17α-(5-acetoxy)pent-1-inyl-1,3,5(10)-estratriene-3,17β-diol and 17α-(5-propanoyl-oxy)pent-1-inyl-1,3,5(10)-estratriene-3,170-diol, was determined in a cell culture and in a transgenic animal model using female adult ERE-luc mice which were ovariectomised or sham-operated three weeks before the experiment. This model allows the anti-inflammatory activity, effect on the estrogen receptor and wound-healing activity to be evaluated.
(§2) Each of the two test compounds was dissolved immediately before use in 99% ethanol, and a 10 mM mother solution was prepared. The successive dilutions were performed in saline solution (0.9% NaCl in bidistilled water).
The activity on the estrogen receptor was evaluated by photometric analysis with CCD chamber after 0, 24, 48 and 72 hours. The animals were then killed, and the tissue surrounding the wound was removed.

cutaneous wound = assay: Wound-healing activity: histological sections of the tissue surrounding the wound; assay type: in vivo, mice
Description: as §1, §2
Histological sections were prepared from the tissue surrounding the wound to evaluate the wound-healing activity. For the histological preparation, the tissue was fixed in 10% formalin (in buffer solution) and embedded in paraffin wax. The sections were stained with haematoxylin-eosin to evaluate the state of inflammation and wound-healing. The sections were also used to quantify the state of infiltration of the macrophages 4 days after the wound, using anti-Mac2 antibodies, and for further staining designed to detect the state of wound-healing and characterise the cells present in the wound area.

ERα = assay: Expression of estrogen receptors in ovariectomised animals: ERα-positive cells; assay type: in vivo, mice

For C[C@]12CC[C@@H]3c4ccc(O)cc4CC[C@H]3[C@@H]1CC[C@@H]2O [estradiol, 17beta-estradiol], the “expression of IL-6” value (IL-6) was “limit the expression of all the inflammation proteins studied”, the “expression of CD74” value (CD74) was “limit the expression of all the inflammation proteins studied” and the “expression of MIF” value (MIF) was “limit the expression of all the inflammation proteins studied”. For the same compound, the “repair of sun-damaged skin” value (sun-damaged skin) was “repair the sun-damaged skin of hairless mice”, the “wound-healing on topical use” value (wound) was “promote wound-healing” and the “number of cells that express the β estrogen receptor” value (ERβ) was “increases the number of cells that test positive for both receptors”. The “expression of TGF-β” value (TGF-β) was “limit the expression of all the inflammation proteins studied”.
For C[C@]12CC[C@@H]3c4ccc(O)cc4CC[C@H]3[C@@H]1C[C@@H](O)[C@@H]2O [estriol], the “activity relative to estradiol” value (wound; Shah et al. 2001) is listed as “much less active than estradiol” and the “wound-healing on topical use” value (wound) is listed as “promote wound-healing”.
For C[C@]12CC[C@@H]3c4ccc(O)cc4CC[C@H]3[C@@H]1CC[C@@]2(O)C#CCBr [17α-(3-bromopropin-1-yl)estradiol], the “inhibitory effect on steroid sulphatase” value (steroid sulphatase) is given as “high”.
For CC12CCC3c4ccc(O)cc4CCC3C1CCC2(O)C#CCO (stereo not drawn) [17α-(3-hydroxypropin-1-yl)estradiol], the “inhibitory effect on steroid sulphatase” value (steroid sulphatase) is given as “very low”.
For CCC(=O)OCCCC#CC1(O)CCC2C3CCc4cc(O)ccc4C3CCC21C (stereo not drawn) [Example 8, 17α-(5-Propanoyloxy)pent-1-ynyl-1,3,5(10)-estratrien-3,17β-diol], the “estrogenic effect in areas other than the area of administration (systemic activity)” value (estrogen receptor; CCD camera, intradermal in loco) was “a slight systemic activity”.
For C[C@]12CC[C@@H]3c4ccc(O)cc4CC[C@H]3[C@@H]1CC[C@H]2O [17α-estradiol], the “repair of sun-damaged skin” value (sun-damaged skin) is given as “repair the sun-damaged skin of hairless mice”.
In the case of CC(=O)OCCCC#C[C@]1(O)CC[C@H]2[C@@H]3CCc4cc(O)ccc4[C@H]3CC[C@@]21C [Example 7, 17α-(5-acetoxy)pent-1-ynyl-1,3,5(10)-estratrien-3,17β-diol], the “expression of CD74” value (CD74) is reported as “significantly inhibited the expression”, the “expression of MIF” value (MIF) is reported as “significantly inhibited the expression” and the “estrogenic effect in areas other than the area of administration (systemic activity)” value (estrogen receptor; mouse, in vivo) is reported as “does not have a detectable estrogenic effect”. For the same compound, the uterotrophic activity (estrogen receptor; mouse, in vivo) was “does not present uterotrophic activity”, the “efficacy of the wound-healing effect” value (cutaneous wound; second study, 5 animals per group, compared with estradiol) was “statistically similar to that of the natural hormone” and the “effect on the wound-healing process” value (cutaneous wound; summary statement) was “marked effect on the wound-healing process”. The “number of cells that express the β estrogen receptor” value (ERβ) was “does not significantly reduce the number of cells that express the β receptor”, the “expression of TGF-β” value (TGF-β) was “significantly inhibited the expression” and the “number of cells that test positive for the α estrogen receptor” value (ERα) was “does not act on the number of cells that test positive for the α receptor”.
